In ChEMBL document CHEMBL2074091, “Transport of methotrexate, methotrexate polyglutamates, and 17beta-estradiol 17-(beta-D-glucuronide) by ABCG2: effects of acquired mutations at R482 on methotrexate transport” (Cancer Res, 2003):

Assays:
Type in all cases: functional, cell membranes
[1] = molecular target: T1, Broad substrate specificity ATP-binding cassette transporter ABCG2 (Homo sapiens, UniProt Q9UNQ0); assay: (§1) TP_TRANSPORTER: uptake (vesicle) in membrane vesicle from ABCG2-R482-expressing HEK293 cells; details: hek293
T1 sequence (Q9UNQ0 whole entry): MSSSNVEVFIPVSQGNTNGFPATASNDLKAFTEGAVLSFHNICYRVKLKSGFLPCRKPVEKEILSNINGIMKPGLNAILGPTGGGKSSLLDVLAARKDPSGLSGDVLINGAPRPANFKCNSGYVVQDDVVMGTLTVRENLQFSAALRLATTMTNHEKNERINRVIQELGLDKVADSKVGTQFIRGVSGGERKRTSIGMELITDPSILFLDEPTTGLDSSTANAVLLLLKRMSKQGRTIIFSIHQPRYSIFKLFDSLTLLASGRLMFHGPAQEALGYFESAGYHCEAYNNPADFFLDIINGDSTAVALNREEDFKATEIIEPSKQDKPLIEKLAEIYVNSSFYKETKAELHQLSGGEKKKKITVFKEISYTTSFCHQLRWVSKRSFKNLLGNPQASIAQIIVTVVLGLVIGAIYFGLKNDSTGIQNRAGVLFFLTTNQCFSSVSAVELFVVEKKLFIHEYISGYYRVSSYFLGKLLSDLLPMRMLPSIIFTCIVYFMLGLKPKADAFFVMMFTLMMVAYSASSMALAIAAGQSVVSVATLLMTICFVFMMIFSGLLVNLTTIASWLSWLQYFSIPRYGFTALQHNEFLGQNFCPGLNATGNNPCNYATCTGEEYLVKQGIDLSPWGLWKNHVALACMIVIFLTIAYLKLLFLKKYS

ABCG2 (R482) = molecular target: T2, ABCG2 (R482) (Homo sapiens, UniProt Q9UNQ0); assay: as §1; details: membrane vesicles from ABCG2-R482-expressing HEK293 cells
T2 sequence (Q9UNQ0 whole entry): T1 sequence (Q9UNQ0 whole entry)

[2] = molecular target: ATP-binding cassette sub-family C member 2 (Homo sapiens, UniProt Q92887); assay: TP_TRANSPORTER: uptake (vesicle) in membrane vesicle from MRP2-expressing HEK293 cells
[3] = molecular target: Multidrug resistance associated protein (Homo sapiens) (UniProt Q96QA9); assay: TP_TRANSPORTER: uptake (vesicle) in membrane vesicles from MRP3-expressing HEK293 cells
Sequence of Multidrug resistance associated protein (Homo sapiens) (Q96QA9 as listed by the source): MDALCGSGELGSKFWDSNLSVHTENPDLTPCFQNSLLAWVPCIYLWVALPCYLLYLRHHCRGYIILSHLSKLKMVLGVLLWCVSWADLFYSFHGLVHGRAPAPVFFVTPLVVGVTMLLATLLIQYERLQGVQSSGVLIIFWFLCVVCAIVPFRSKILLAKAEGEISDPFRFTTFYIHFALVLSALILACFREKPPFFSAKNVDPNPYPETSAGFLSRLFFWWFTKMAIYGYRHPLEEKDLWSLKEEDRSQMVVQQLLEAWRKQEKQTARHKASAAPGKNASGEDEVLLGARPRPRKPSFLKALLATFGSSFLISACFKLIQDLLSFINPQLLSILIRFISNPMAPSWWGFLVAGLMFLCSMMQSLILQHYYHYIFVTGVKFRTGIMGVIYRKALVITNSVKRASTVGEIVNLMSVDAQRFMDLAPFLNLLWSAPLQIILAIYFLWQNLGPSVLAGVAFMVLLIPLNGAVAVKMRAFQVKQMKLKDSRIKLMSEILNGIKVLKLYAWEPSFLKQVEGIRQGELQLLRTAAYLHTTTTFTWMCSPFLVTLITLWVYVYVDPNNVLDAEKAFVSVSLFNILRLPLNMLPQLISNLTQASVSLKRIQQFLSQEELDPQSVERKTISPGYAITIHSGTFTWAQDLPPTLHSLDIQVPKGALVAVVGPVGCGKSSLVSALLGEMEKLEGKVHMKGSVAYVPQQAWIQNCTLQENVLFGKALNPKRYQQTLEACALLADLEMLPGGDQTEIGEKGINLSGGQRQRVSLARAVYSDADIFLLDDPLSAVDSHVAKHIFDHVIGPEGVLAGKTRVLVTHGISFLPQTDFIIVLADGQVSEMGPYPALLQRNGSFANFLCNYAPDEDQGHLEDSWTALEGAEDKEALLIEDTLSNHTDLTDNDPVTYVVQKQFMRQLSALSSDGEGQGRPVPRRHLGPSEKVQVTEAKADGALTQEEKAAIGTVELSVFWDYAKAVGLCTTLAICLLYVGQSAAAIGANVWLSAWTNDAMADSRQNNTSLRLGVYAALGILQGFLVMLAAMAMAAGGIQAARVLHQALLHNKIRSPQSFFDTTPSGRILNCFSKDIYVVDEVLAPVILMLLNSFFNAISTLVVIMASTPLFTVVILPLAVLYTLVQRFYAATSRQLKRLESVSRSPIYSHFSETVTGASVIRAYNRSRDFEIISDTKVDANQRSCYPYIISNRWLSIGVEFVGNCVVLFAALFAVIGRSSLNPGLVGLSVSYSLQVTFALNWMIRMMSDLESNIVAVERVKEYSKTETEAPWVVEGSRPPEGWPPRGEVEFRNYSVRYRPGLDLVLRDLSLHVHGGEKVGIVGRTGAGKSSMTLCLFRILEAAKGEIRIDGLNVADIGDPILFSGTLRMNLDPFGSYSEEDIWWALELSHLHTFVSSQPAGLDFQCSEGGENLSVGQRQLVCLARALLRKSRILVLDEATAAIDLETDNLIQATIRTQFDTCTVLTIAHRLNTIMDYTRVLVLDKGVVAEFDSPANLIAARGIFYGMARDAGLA

Sequence of ATP-binding cassette sub-family C member 2 (Q92887 whole entry): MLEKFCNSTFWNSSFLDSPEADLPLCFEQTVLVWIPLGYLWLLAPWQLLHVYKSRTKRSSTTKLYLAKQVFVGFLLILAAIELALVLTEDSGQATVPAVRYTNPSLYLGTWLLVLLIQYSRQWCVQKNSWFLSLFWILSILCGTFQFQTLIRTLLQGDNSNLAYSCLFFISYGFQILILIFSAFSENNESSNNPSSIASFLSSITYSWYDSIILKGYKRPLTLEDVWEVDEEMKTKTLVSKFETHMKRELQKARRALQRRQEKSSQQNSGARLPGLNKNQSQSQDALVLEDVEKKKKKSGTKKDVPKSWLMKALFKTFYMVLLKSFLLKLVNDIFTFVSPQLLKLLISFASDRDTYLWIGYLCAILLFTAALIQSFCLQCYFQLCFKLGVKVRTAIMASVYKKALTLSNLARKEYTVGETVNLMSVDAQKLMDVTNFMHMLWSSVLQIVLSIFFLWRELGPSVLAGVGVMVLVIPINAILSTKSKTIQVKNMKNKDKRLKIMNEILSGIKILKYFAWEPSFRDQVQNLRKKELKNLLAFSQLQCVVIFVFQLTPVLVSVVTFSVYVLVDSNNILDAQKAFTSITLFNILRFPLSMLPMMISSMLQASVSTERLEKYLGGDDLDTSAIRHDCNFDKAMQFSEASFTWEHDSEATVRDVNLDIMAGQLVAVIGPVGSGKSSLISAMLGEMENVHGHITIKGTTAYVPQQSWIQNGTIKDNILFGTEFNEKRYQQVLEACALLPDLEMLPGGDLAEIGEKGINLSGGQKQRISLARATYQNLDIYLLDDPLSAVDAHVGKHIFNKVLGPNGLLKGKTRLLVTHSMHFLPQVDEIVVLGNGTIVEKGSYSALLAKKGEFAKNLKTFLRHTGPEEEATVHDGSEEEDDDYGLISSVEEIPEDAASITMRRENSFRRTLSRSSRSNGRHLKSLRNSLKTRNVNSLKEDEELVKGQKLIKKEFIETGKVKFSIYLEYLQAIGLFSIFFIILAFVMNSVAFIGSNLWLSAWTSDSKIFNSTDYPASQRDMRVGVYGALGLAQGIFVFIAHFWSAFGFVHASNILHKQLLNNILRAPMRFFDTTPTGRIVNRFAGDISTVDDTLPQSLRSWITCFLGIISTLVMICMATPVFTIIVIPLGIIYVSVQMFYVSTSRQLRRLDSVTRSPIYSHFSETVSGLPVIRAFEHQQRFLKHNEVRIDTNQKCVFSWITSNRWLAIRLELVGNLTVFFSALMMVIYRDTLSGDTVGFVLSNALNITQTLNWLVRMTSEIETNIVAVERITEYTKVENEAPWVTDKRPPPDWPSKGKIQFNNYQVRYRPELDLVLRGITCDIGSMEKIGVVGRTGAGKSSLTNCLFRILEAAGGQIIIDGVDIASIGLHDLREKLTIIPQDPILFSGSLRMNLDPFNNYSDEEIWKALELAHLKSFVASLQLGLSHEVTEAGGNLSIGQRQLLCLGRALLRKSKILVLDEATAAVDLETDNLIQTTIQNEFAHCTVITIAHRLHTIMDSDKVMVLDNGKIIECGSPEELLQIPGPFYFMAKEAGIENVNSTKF

C[C@]12CC[C@@H]3c4ccc(O)cc4CC[C@H]3[C@@H]1CC[C@@H]2O[C@@H]1O[C@H](C(=O)O)[C@@H](O)[C@H](O)[C@H]1O [ESTRADIOL 17B GLUCURONIDE]
Activity [1]: substrate []

CN(Cc1cnc2nc(N)nc(N)c2n1)c1ccc(C(=O)N[C@@H](CCC(=O)O)C(=O)O)cc1 [METHOTREXATE]
Km (ABCG2 (R482)): 1.3 mM

Nc1nc2c(c(=O)[nH]1)N(C=O)C(CNc1ccc(C(=O)N[C@@H](CCC(=O)O)C(=O)O)cc1)CN2 (some centres not stated) [LEUCOVORIN]
Activity [2]: substrate []

Nc1nc(=O)c2c([nH]1)NCC(CNc1ccc(C(=O)N[C@@H](CCC(=O)O)C(=O)O)cc1)N2C=O (some centres not stated)
Activity [3]: substrate []

CN(Cc1cnc2nc(N)nc(N)c2n1)c1ccc(C(=O)N[C@@H](CCC(=O)N[C@@H](CCC(=O)N[C@@H](CCC(=O)O)C(=O)O)C(=O)O)C(=O)O)cc1
Activity [1]: substrate []

CN(Cc1cnc2nc(N)nc(N)c2n1)c1ccc(C(=O)N[C@@H](CCC(=O)N[C@@H](CCC(=O)N[C@@H](CCC(=O)N[C@@H](CCC(=O)O)C(=O)O)C(=O)O)C(=O)O)C(=O)O)cc1
Activity [1]: substrate []

Nc1nc2ncc(CNc3ccc(C(=O)N[C@@H](CCC(=O)O)C(=O)O)cc3)nc2c(=O)[nH]1 [FOLIC ACID]
Activity [1]: substrate []
